Results: patent publication EP4722201A1, “3-PHENYLISOXAZOLINE-5-CARBOXAMIDE COMPOUND, AND PREPARATION METHOD THEREFOR, HERBICIDAL COMPOSITION THEREOF AND USE THEREOF” (Jiangsu Flag Chemical Industry Co., Ltd, priority 2023, dated 2024)

Tests used:
Type in all cases: in vivo
Alopecurus myosuroides = assay: Indoor herbicide activity determination, Seed Treatment; pre-emergence (soil spray); settings: Dosage 240 g a.i./ha
Procedure, shortened: (§1)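 Weed seeds were sown in 7 cm pots of sandy nutrient soil (pH 6.1, 1% organic matter), covered, bottom-watered and held 24 h in a constant-temperature illuminated room before the soil surface was sprayed in a traveling spray tower. Fresh-weight inhibition versus untreated plants was scored 21 days later.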

Lolium multiflorum = assay: as above; settings: Dosage 240 g a.i./ha
Procedure, shortened: as §1

Eleusine indica = assay: as above; settings: Dosage 240 g a.i./ha
Procedure, shortened: as §1

Alopecurus japonicus = assay: as above; settings: Dosage 240 g a.i./ha
Procedure, shortened: as §1

Leptochloa chinensis = assay: as above; settings: Dosage 240 g a.i./ha
Procedure, shortened: as §1

Digitaria sanguinalis = assay: Indoor herbicide activity determination, post-emergence (stem and leaf spray at 2-4 leaf stage); settings: 504 h, 60 g a.i./ha, determined 21 days later, read-out: Inhibition rate of fresh weight, Digitaria sanguinalis
From the text: (§2) The testing method for herbicide activity of the compound of the present invention was as follows:
(§3) Post-emergence: an appropriate quantity of seeds of gramineous weeds (Echinochloa crusgalli, Eleusine indica, Digitaria sanguinalis, Alopecurus japonicus, Beckmannia syzigachne, Leptochloa chinensis, Polypogon fugax, Alopecurus aequalis, Lolium multiflorum, Poa annua, Aegilops tauschii, Avena fatua, Alopecurus myosuroides, Alopecurus japonicus and Alopecurus aequalis), broad-leaved weeds (Eclipta prostrata, Amaranthus retroflexus, Rorippa indica, Malachium aquaticum, Veronica polita, Conyza canadensis, Sesbania cannabina, Sagittariatrifolia and Schoenoplectiella juncoides), and Cyperus iria were sown in plastic pots having a diameter of 7 cm and holes at the bottom and filled with nutrient soil (sandy soil, pH 6.1, organic matter 1%) respectively, the seeds were covered with an appropriate amount of soil after being sown, then the soil was wetted with water from the bottom, the seeds were cultured in a constant-temperature illuminated culture room until a 2-4 leaf stage, and stems and leaves underwent spray treatment. After the treatment, the test materials were placed in a laboratory and cultured in the constant-temperature illuminated culture room after the liquid was naturally dry in the shade, and results were determined 21 days later. Inhibition rate of fresh weight % = (1−(fresh weight of treated plants)/(fresh weight of control plants)) × 100% [formula]

Eclipta prostrata = assay: as above; settings: 504 h, 60 g a.i./ha, determined 21 days later, read-out: Inhibition rate of fresh weight, Eclipta prostrata
From the text: as §2, §3

Cyperus iria = assay: as above; settings: 504 h, 60 g a.i./ha, determined 21 days later, read-out: Inhibition rate of fresh weight, Cyperus iria
From the text: as §2, §3

Row | SMILES | Herbicidal activities, Alopecurus myosuroides (inhibition rate class) (Alopecurus myosuroides) | Herbicidal activities, Lolium multiflorum (inhibition rate class) (Lolium multiflorum) | Herbicidal activities, Eleusine indica (inhibition rate class) (Eleusine indica) | Herbicidal activities, Alopecurus japonicus (inhibition rate class) (Alopecurus japonicus) | Herbicidal activities, Leptochloa chinensis (inhibition rate class) (Leptochloa chinensis) | inhibition at 60 g/ha (Digitaria sanguinalis) [%] | inhibition at 60 g/ha (Eclipta prostrata) [%] | inhibition at 60 g/ha (Cyperus iria) [%]
1 | C=CC1(C(=O)N[C@H]2C[C@@H](C(=O)OC)C2)CC(c2cc(F)cc(Cl)c2)=NO1 (mixture of isomers) [I-29] | A (A indicates that the inhibition rate was greater than or equal to 80% to 100%) | A (A indicates that the inhibition rate was greater than or equal to 80% to 100%) | A (A indicates that the inhibition rate was greater than or equal to 80% to 100%) | A (A indicates that the inhibition rate was greater than or equal to 80% to 100%) | A (A indicates that the inhibition rate was greater than or equal to 80% to 100%) | 80 to 100 | 40 to 60 | 80 to 100
2 | C=CC1(C(=O)N[C@H]2C[C@@H](C(=O)O)C2)CC(c2cc(Cl)cc(Cl)c2)=NO1 (mixture of isomers) [I-37] | A (A indicates that the inhibition rate was greater than or equal to 80% to 100%) | A (A indicates that the inhibition rate was greater than or equal to 80% to 100%) | A (A indicates that the inhibition rate was greater than or equal to 80% to 100%) | A (A indicates that the inhibition rate was greater than or equal to 80% to 100%) | A (A indicates that the inhibition rate was greater than or equal to 80% to 100%) | 80 to 100 | 60 to 80 | 80 to 100
3 | C=CC1(C(=O)N[C@H]2C[C@@H](C(=O)OC)C2)CC(c2cc(Cl)cc(Cl)c2)=NO1 (mixture of isomers) [I-39] | A (A indicates that the inhibition rate was greater than or equal to 80% to 100%) | A (A indicates that the inhibition rate was greater than or equal to 80% to 100%) | A (A indicates that the inhibition rate was greater than or equal to 80% to 100%) | A (A indicates that the inhibition rate was greater than or equal to 80% to 100%) | A (A indicates that the inhibition rate was greater than or equal to 80% to 100%) | 80 to 100 | 60 to 80 | 80 to 100
4 | C=CC1(C(=O)N[C@H]2C[C@@H](C(=O)O)C2)CC(c2cc(F)cc(C(F)(F)F)c2)=NO1 (mixture of isomers) [I-49] | A (A indicates that the inhibition rate was greater than or equal to 80% to 100%) | A (A indicates that the inhibition rate was greater than or equal to 80% to 100%) | A (A indicates that the inhibition rate was greater than or equal to 80% to 100%) | A (A indicates that the inhibition rate was greater than or equal to 80% to 100%) | A (A indicates that the inhibition rate was greater than or equal to 80% to 100%) | 60 to 80 | 60 to 80 | 80 to 100
5 | C=CC1(C(=O)N[C@H]2C[C@@H](C(=O)OC)C2)CC(c2cc(F)cc(C(F)(F)F)c2)=NO1 (mixture of isomers) [I-51] | A (A indicates that the inhibition rate was greater than or equal to 80% to 100%) | A (A indicates that the inhibition rate was greater than or equal to 80% to 100%) | A (A indicates that the inhibition rate was greater than or equal to 80% to 100%) | A (A indicates that the inhibition rate was greater than or equal to 80% to 100%) | A (A indicates that the inhibition rate was greater than or equal to 80% to 100%) | 60 to 80 | 60 to 80 | 80 to 100
6 | C=CC1(C(=O)N[C@H]2C[C@@H](C(=O)O)C2)CC(c2cc(F)cc(OC(F)(F)F)c2)=NO1 (mixture of isomers) [I-57] | A (A indicates that the inhibition rate was greater than or equal to 80% to 100%) | A (A indicates that the inhibition rate was greater than or equal to 80% to 100%) | A (A indicates that the inhibition rate was greater than or equal to 80% to 100%) | A (A indicates that the inhibition rate was greater than or equal to 80% to 100%) | A (A indicates that the inhibition rate was greater than or equal to 80% to 100%) | 80 to 100 | 60 to 80 | 80 to 100
7 | C=CC1(C(=O)N[C@H]2C[C@@H](C(=O)OC)C2)CC(c2cc(F)cc(OC(F)(F)F)c2)=NO1 (mixture of isomers) [I-59] | A (A indicates that the inhibition rate was greater than or equal to 80% to 100%) | A (A indicates that the inhibition rate was greater than or equal to 80% to 100%) | A (A indicates that the inhibition rate was greater than or equal to 80% to 100%) | A (A indicates that the inhibition rate was greater than or equal to 80% to 100%) | A (A indicates that the inhibition rate was greater than or equal to 80% to 100%) | 80 to 100 | 60 to 80 | 80 to 100
8 | CC1(C(=O)N[C@H]2C[C@@H](C(=O)O)C2)CC(c2cc(F)cc(F)c2)=NO1 (mixture of isomers) [I-111] | A (A indicates that the inhibition rate was greater than or equal to 80% to 100%) | A (A indicates that the inhibition rate was greater than or equal to 80% to 100%) | A (A indicates that the inhibition rate was greater than or equal to 80% to 100%) | A (A indicates that the inhibition rate was greater than or equal to 80% to 100%) | A (A indicates that the inhibition rate was greater than or equal to 80% to 100%) | 80 to 100 | 60 to 80 | 80 to 100
9 | COC(=O)[C@H]1C[C@@H](NC(=O)C2(C)CC(c3cc(F)cc(F)c3)=NO2)C1 (mixture of isomers) [I-113] | A (A indicates that the inhibition rate was greater than or equal to 80% to 100%) | A (A indicates that the inhibition rate was greater than or equal to 80% to 100%) | A (A indicates that the inhibition rate was greater than or equal to 80% to 100%) | A (A indicates that the inhibition rate was greater than or equal to 80% to 100%) | A (A indicates that the inhibition rate was greater than or equal to 80% to 100%) | 80 to 100 | 60 to 80 | 80 to 100
